From article PMC8769072, “Proteome‐scale mapping of binding sites in the unstructured regions of the human proteome” (Molecular Systems Biology, 2022) come the findings set out here.

The experiment concerns immobilized GST-tagged bait protein domains. The experiment is described as follows: ProP-PD phage selections (HD2 P8, sublibraries, HD2 P3, HD1 P8) with NGS and confidence level. The experiment is classed as binding, human.
Where [1] appears, read: bait ANKRA2_Ank__Q9H9E1_142_313, library HD.
Where [2] appears, read: bait ANKRA2_Ank__Q9H9E1_142_313, library HD, mean normalised NGS counts.
Where [3] appears, read: bait ANKRA2_Ank__Q9H9E1_142_313, library HD, mean raw NGS counts, all selections.
[4] abbreviates: bait SIN3A_PAH__Q96ST3_295_383, HD2 library, whether the validated benchmark motif instance was recovered in the ProP-PD selection (TRUE/FALSE).
[5] abbreviates: library HD2, bait KLC1_TPR__Q07866_203_497, whether the validated benchmark motif instance was recovered in the ProP-PD selection (TRUE/FALSE).
Setting [6] is: HD2 library, bait SUMO1_SUMO__P63165_1_101, known motif instance of the benchmarking set found (TRUE) or not found (FALSE) among selected peptides.
The mark [7] stands for this setting: bait AP2B1_adaptin__P63010_700_937, library HD2, benchmarking set of validated motif instances, TRUE = motif instance recovered in the ProP-PD selection.
The mark [8] stands for this setting: bait PABP-B_PABP__P11940_544_623, HD2 library, whether the validated benchmark motif instance was recovered in the ProP-PD selection (TRUE/FALSE).
[9] abbreviates: bait KPNA4_Arm (O00629 68-487), HD2 library, benchmark motif instance recovered in the ProP-PD selection (TRUE/FALSE).
Where [10] appears, read: bait SUMO1_SUMO__P63165_1_101, HD2 library, confidence level (1-4) of best matching selected peptide.
[11] abbreviates: bait SUMO1_SUMO__P63165_1_101, HD2 library, specificity score of best matching selected peptide.
Where [12] appears, read: bait SUMO1_SUMO__P63165_1_101, HD2 library, whether the validated benchmark motif instance was recovered in the ProP-PD selection (TRUE/FALSE).
Setting [13] is: library HD2, bait EIF4E_eIF4E__P06730_1_217, whether the validated benchmark motif instance was recovered in the ProP-PD selection (TRUE/FALSE).
[14] abbreviates: library HD2, bait EPS15_EH__P42566_121_215, whether the validated benchmark motif instance was recovered in the ProP-PD selection (TRUE/FALSE).
Setting [15] is: HD2 library, bait TSG101_UEV__Q99816_1_145, known motif instance of the benchmarking set found (TRUE) or not found (FALSE) among selected peptides.
The mark [16] stands for this setting: bait CLTC_Clathrin-propeller__Q00610_1_364, library HD2, benchmarking set of validated motif instances, TRUE = motif instance recovered in the ProP-PD selection.

In the case of MSARPSLPPLPAKPAG, the HD confidence under setting [1] came out at 2. Under “bait ANKRA2_Ank__Q9H9E1_142_313, library HD2 P8”, this substance yielded an HD2 confidence of 2. The same substance registered an HD count proportions under setting [2] of 0.0001907. The substance further displayed an HD mean counts under setting [3] of 3.25. For the substance MSIETLLEAARFLEWQAQQQ, the motif_found result under setting [4] is given as “FALSE”. Take MSSLYPSLEDLKVDQA: the HD confidence (bait PDCD6IP_Alix-V-domain__Q8WUM4_360_702, library HD) is recorded as 2. The substance also gave a p3_HD2 confidence (bait PDCD6IP_Alix-V-domain__Q8WUM4_360_702, library HD2 P3) of 3. Moreover, the p3_HD2 count proportions (bait PDCD6IP_Alix-V-domain__Q8WUM4_360_702, library HD2 P3, mean normalised NGS counts) was found to be 0.4191. Further, where the note is “bait PDCD6IP_Alix-V-domain__Q8WUM4_360_702, library HD2 P3, mean raw NGS counts, all selections”, the p3_HD2 mean counts is listed as 20392.666666666668. Further, the HD2 confidence (bait PDCD6IP_Alix-V-domain__Q8WUM4_360_702, library HD2 P8) is recorded as 4. Under “bait PDCD6IP_Alix-V-domain__Q8WUM4_360_702, library HD2 P8 nucleocytoplasmic”, this substance registered an HD2_nc confidence of 3. Further, the HD2_nc count proportions (bait PDCD6IP_Alix-V-domain__Q8WUM4_360_702, library HD2 P8 nucleocytoplasmic, mean normalised NGS counts) was found to be 0.343. The HD2_nc mean counts (bait PDCD6IP_Alix-V-domain__Q8WUM4_360_702, library HD2 P8 nucleocytoplasmic, mean raw NGS counts, all selections) amounted to 24438.333333333332. This substance also showed an HD count proportions (bait PDCD6IP_Alix-V-domain__Q8WUM4_360_702, library HD, mean normalised NGS counts) of 0.4404. This substance also registered an HD mean counts (bait PDCD6IP_Alix-V-domain__Q8WUM4_360_702, library HD, mean raw NGS counts, all selections) of 2175.8. For the substance NATRQQQLEWDDSTLSY-----, under setting [5], the motif_found entry is “FALSE”. On to NDIDEVIIPTAPLYKQILNL [TSG101 319-324], for which, for the setting “HD2 library, bait TSG101_UEV__Q99816_1_145, benchmark motif instance, in_library_check FALSE, in_library_coverage 0”, the motif_found result is on record as “FALSE”. With NEEINIASSDSEVEIVGVQEHARC, the motif_found result under setting [6] was “FALSE”. Take NGAEDDDDDEFGEFGGFSEVS [AFTPH]: under setting [7], the motif_found result is reported as “FALSE”.

For the substance NGSSSVNWPPEFRPGEPWKGYPNIDPET, the motif_found entry under setting [8] is recorded as “FALSE”.

As for NHWQKIRTMVNLPVISPFK [ITPKA 165-183], where the note is “HD2 library, bait CALM1_EF-hand__P0DP23_2_149, benchmark motif instance, in_library_check FALSE, in_library_coverage 0”, the motif_found entry is reported as “FALSE”.

As for NIHNSKAPKKNRLRRKSSTR, under setting [9], the motif_found result is “FALSE”.

On to NKKVEVIDLTIDSSSD, for which, under setting [10], the best_confidence is given as 4. The best_specificity under setting [11] is given as 1. Moreover, the motif_found entry under setting [12] is reported as “TRUE”.

Consider NLEEKKRYDREFLLGFQFIFA, for which, under setting [13], the motif_found result is “FALSE”.

As for NLNGTIKDDFSEFDNLRTSKKTAE [EPN2], the motif_found result under setting [7] was “FALSE”.

Under setting [1], NLQLPSLDEQVIPARL displayed an HD confidence of 3. For the same substance, the HD count proportions under setting [2] is given as 0.0005556. This substance also registered an HD mean counts under setting [3] of 7.75. In the case of NMTPYRSPPPYVPP----, the motif_found entry (bait NEDD4_WW_4 (P46934 890-928), HD2 library, benchmark motif instance recovered in the ProP-PD selection (TRUE/FALSE)) is given as “FALSE” and the motif_found result (library HD2, bait YAP1_WW_1_P46937_169_207, validated benchmark motif instance, in_library_check TRUE, TRUE/FALSE = instance recovered in ProP-PD selection) was “FALSE”.

On to NPFLAPGAPATSAPVN, for which the best_specificity (library HD2, bait EPS15_EH__P42566_121_215, best matching peptide) is reported as 1. The same substance registered a best_confidence (library HD2, bait EPS15_EH__P42566_121_215, confidence level of best matching peptide (4 High, 2-3 Medium, 1 Low)) of 3. Besides, the motif_found entry under setting [14] is “TRUE”. Regarding NPNAKEFVPGVKYGNI, the best_confidence (bait PABP-B_PABP__P11940_544_623, HD2 library, confidence level (1-4) of best matching selected peptide) is 2. This substance displayed a best_specificity (bait PABP-B_PABP__P11940_544_623, HD2 library, specificity score of best matching selected peptide) of 1. Under setting [8], the motif_found entry is listed as “TRUE”.

For the substance NRVAYIEFPPPPPLDADQI, the motif_found result (library HD2, bait VASP_EVH1__P50552_1_114, validated benchmark motif instance, in_library_check TRUE, TRUE/FALSE = instance recovered in ProP-PD selection) is “FALSE”. NSVTSTNLEWDDSAIAPSSEDYDF: the motif_found result under setting [5] is “FALSE”. Consider NTPSGKSDDDFADFHSSKFSS [SYNRG], for which the motif_found entry under setting [7] is recorded as “FALSE”. Turning to NVQRLLEAAEFLERRE, the best_confidence (bait SIN3A_PAH__Q96ST3_295_383, HD2 library, confidence level (1-4) of best matching selected peptide) is on record as 3. For the same substance, for the setting “bait SIN3A_PAH__Q96ST3_295_383, HD2 library, specificity score of best matching selected peptide”, the best_specificity is on record as 0.6. Besides, the motif_found entry under setting [4] is reported as “TRUE”.

NYCPPVKRERTSSL: the motif_found result under setting [9] is “FALSE”. With NYPFTWNTPSAPPGYNIAVK, the motif_found result under setting [15] is reported as “FALSE”.

On to PAAAAANELNNNLPGGAPAA, for which the motif_found entry (bait SPSB1_SPRY__Q96BD6_30_231, HD2 library, whether the validated benchmark motif instance was recovered in the ProP-PD selection (TRUE/FALSE)) is listed as “FALSE”. Consider PAPALPPKPPKPTTVA, for which the best_specificity (bait CRK_SH3_1_P46108_124_198, library HD2, best matching peptide) came out at 1. The best_confidence (bait CRK_SH3_1_P46108_124_198, library HD2, confidence level of best matching peptide (4 = High, 2 or 3 = Medium, 1 = Low)) is given as 2. Take PAPAPLPPPSAPSLQPSRKL: the motif_found result under setting [15] is “FALSE”. Take PATKEISLLDLEDFTPPSV [AP3B2]: under setting [16], the motif_found entry is given as “FALSE”. In the case of PEISLEAEPIELVETAGDEIVD, under setting [6], the motif_found result was “FALSE”. For the substance PFEEPTCINPFEMDSDSGP, the motif_found entry under setting [14] is recorded as “FALSE”. As to PFSEQASLLDLDFDPLPPV [BIN1], the motif_found result under setting [16] is “FALSE”. For PGADVVDLTLDSSSSS, the best_confidence under setting [10] was 2. Moreover, the best_specificity under setting [11] amounted to 1. Besides, the motif_found entry under setting [12] is given as “TRUE”.

Regarding PGGGHPAPSWVAFAHT, the HD2 confidence (bait AP2B1_adaptin__P63010_700_937, HD2 P8 selection, non primary paralogue peptide match, confidence level -4 to 4: 4 = High, 3 or 2 = Medium, 1 = Low, 0 = Filtered/Noise) turned out to be 4. Turning to PGGTRIIYDRKFLLDRRNSPM, under setting [13], the motif_found entry was “FALSE”. As for PGGTRIIYDRKFLLECKNSPI, the motif_found result under setting [13] is “FALSE”.

For the substance PGPPAPNTNPFLL------, under setting [14], the motif_found entry is on record as “FALSE”. With “PGSAPPPQAQGPPYPTYPGYPGYCQ,QAQGPPYPTYPGY [PDCD6IP]”, the motif_found result (bait CEP55_EABR__Q53EZ4_160_217, library HD2, benchmarking set of validated motif instances, TRUE = motif instance recovered in the ProP-PD selection) was “FALSE”. PIPHDGNLYPRLYPELSQY [SDCBP 45-49]: the motif_found entry (HD2 library, bait PDCD6IP_Alix-V-domain__Q8WUM4_360_702, benchmark motif instance, in_library_check FALSE, in_library_coverage 0) was “FALSE”.

In turn, PLIDLPLIDFCDTPEA came in with an HD2_nc confidence (bait CLTC_Clathrin-propeller__Q00610_1_364, HD2 P8 nucleocytoplasmic sublibrary, confidence level (4 = High, 2-3 = Medium, 1 = Low)) of 4. The HD2_nc mean counts (bait CLTC_Clathrin-propeller__Q00610_1_364, HD2 P8 nucleocytoplasmic sublibrary, mean NGS counts over replicate selections) came to 154.7. This substance showed an HD2_nc count proportions (bait CLTC_Clathrin-propeller__Q00610_1_364, HD2 P8 nucleocytoplasmic sublibrary, mean proportion of NGS counts) of 0.002602. For the substance PLTKDVSLLDLDDFNPVST [AP3B1], under setting [16], the motif_found result was “FALSE”.

As for PLYTSPSLPNITLGLP, the best_specificity (bait ANKRA2_Ank__Q9H9E1_142_313, library HD2, best matching peptide) is on record as 1. Under “bait ANKRA2_Ank__Q9H9E1_142_313, library HD2, confidence level of best matching peptide (4 = High, 2 or 3 = Medium, 1 = Low)”, the best_confidence was determined as 3. The substance PMLPDLTLEAWPSTDK came in with a confidence (library HD, bait ANKRA2_Ank__Q9H9E1_142_313, ProP-PD peptides with disease-related mutations) of 3. For PPAEEPEARPDGEGSPGKARPG, the motif_found result (HD2 library, bait TNKS_TANK-peptide-bind__O95271_174_649, known motif instance of the benchmarking set found (TRUE) or not found (FALSE) among selected peptides) was “FALSE”. On to PPAGLNSSWVELPMNSSNG, for which the motif_found result (bait MAP1LC3B_ATG8 (Q9GZQ8 2-119), HD2 library, benchmark motif instance recovered in the ProP-PD selection (TRUE/FALSE)) is given as “FALSE”.

In the case of PPAPVNDEPIVIED-------, under setting [6], the motif_found entry is listed as “FALSE”. Take PPDTKLSKLDVLLLAT: the HD2_nucleus confidence (bait SIN3A_PAH__Q96ST3_295_383, library HD2 P8 nucleus) was found to be 4.
